According to patent US20250312416A1, “METHOD AND PHARMACEUTICAL COMPOSITION FOR CARTILAGE REGENERATION” (FAR EASTERN MEMORIAL HOSPITAL, priority 2024, published 2025):
Entries after “also recorded” stand apart in the source; their conditions may differ.

Assays:
UC-MSCs [1] = experiment: Real-time PCR of chondrogenic genes in UC-MSCs; type: cell-based; details: day 7 of peptide treatment
From the text: (§1) FIG. 13A provides flowchart illustrating the protocol for peptide treatment and sample collection. […] TGF-beta influenced the expression of chondrogenic genes, including ITGB1 and COMP. […] Treatment with CXCL14/CXCL12 peptides increased GAG content during chondrogenesis in the presence of TGF-beta.
(§2) To further validate the role of CXCL14-P and CXCL12-P in regulating chondrogenesis, we compared their effects on another MSC source, umbilical cord-derived mesenchymal stem cells (UC-MSCs). It is important to note that the chondrogenic induction medium contained TGF-β. During chondrogenesis, we observed that the chondrogenic patterns in UC-MSCs were lower than those in ADSCs (FIG. 12). Subsequently, we assessed the chondrogenic potential of UC-MSCs following stimulation with CXCL14-P and CXCL12-P (FIG. 13A). […] Although the expression of chondrogenic genes (FIG. 13B) and GAG content (FIG. 13C) in UC-MSCs was not as pronounced as in ADSCs, the findings confirm that CXCL14-P and CXCL12-P can robustly stimulate chondrogenesis across different MSC sources.

UC-MSCs [2] = experiment: Alcian blue staining of chondrogenic pellets (GAG), UC-MSCs; type: cell-based; details: in the presence of TGF-beta
From the text: as §1, §2

ADSC spheroids = experiment: Immunofluorescence / confocal microscopy of chondrogenic proteins in ADSC spheroids; type: cell-based, human; details: 3D ADSC spheroids, by day 7
Procedure: Both side views (observed in the x and z plane) and bottom views (observed in the […]) of the images are provided. The scale bar is set at 500 μm.
ADSCs were treated with CXCL14-P, CXCL14-P1, or CXCL14-P2, respectively, at a concentration of 10 ng for 24 hours, after which the medium was replaced with fresh peptide-free medium. On day 7, total RNA was extracted, and real-time PCR analysis was performed to assess the expression levels of key chondrogenic markers, including ACAN, COL2A1, SOX9, and COMP. Gene expression levels were quantified using a LightCycler system (Roche Applied Science), with fold changes calculated relative to untreated control ADSCs. […] Immunofluorescence staining was performed to detect Collagen Type II, SOX9, COMP, and nuclei (Hoechst 33342) in 3D ADSC spheroids (middle panel).
(FIG. 3). […] Moreover, fluorescence confocal microscopy was employed to detect protein patterns and confirm the levels of SOX9, type II collagen, and aggrecan proteins in ADSC spheroids. […] Finally, to investigate whether the CXCR4 receptor of CXCL12/CXCL14 confers chondrogenic signaling during chondrogenesis, we treated ADSCs with a CXCR4 agonist for 7 days.
Extracellular vesicles (EVs) derived from MSCs hold significant potential for repairing damaged tissues. In this study, we explored whether EVs from ADSCs could effectively enhance chondrogenesis and promote cartilage repair. Immunofluorescence staining was used to assess protein levels of Collagen Type II (green), SOX9 (red), COMP (indigo), and Hoechst 33342 (gray) in 3D ADSC spheroids treated with MSC-EVs derived from CXCL14 peptide-primed ADSCs (CXCL14-P-MSC-EVs) at various time points. […] To further explore the cartilage repair functions of EVs from CXCL14-P-treated ADSCs and the encapsulation of the transcription factor SOX9 within MSCs and purified EVs, we performed in vivo studies.

clinical-grade ADSCs = experiment: Alcian blue staining of chondrogenic pellets (GAG), ADSCs; type: cell-based, human
Procedure: The chondrogenic differentiation of pellets containing clinical-grade ADSCs was assessed through Alcian blue staining.
The chondrogenic differentiation of pellets containing clinical-grade ADSCs was evaluated using Alcian blue staining.
Alcian blue staining was used to assess the chondrogenic differentiation of ADSC pellets. […] Treatment with CXCL14-PM1, CXCL14-PM2, CXCL14-PM3, and CXCR4-PM1 was sufficient to enhance the expression of chondrogenic genes in ADSCs. On day 7, real-time PCR was performed to analyze the expression of key chondrogenic markers, including SOX9, COL2A1, COMP, ACAN, ITGB1, CXCL14, and CXCR4, in ADSCs treated with these modified peptides. ADSCs were exposed to distinct peptide modifications derived from CXCL12, CXCL14, and CXCR4 at a concentration of 10 ng for a one-day treatment, after which the medium was replaced with fresh peptide-free medium. At the end of the treatment period, RNA was extracted to evaluate the expression levels of chondrogenesis-related cytokine genes. Gene expression quantification was performed using a LightCycler system (Roche Applied Science), and fold changes were calculated relative to untreated control ADSCs. […] FIG. 16(D) provides a summary of the results for alanine substitution with positively or negatively charged amino acids in CXCL12, CXCL14, and CXCR4 peptides.
To assess differentiation capacity, single-cell suspensions from cultured IPFP-MSCs and ADSCs were cultivated in chondrogenic medium. Alcian Blue staining was performed on day 7 to evaluate chondrogenic differentiation. The chondrogenic differentiation test was measured gene expressions of ACAN, COL2A1, SOX9, COMP, ITGB1, CXCL14 and SOSTDC1.

ADSCs = experiment: Cellular uptake of fluorescently labeled peptides by fluorescence microscopy; type: cell-based, human
Procedure: Cell-penetrating properties of CXCL14-P and CXCL12-P peptides in ADSCs were analyzed. ADSCs were incubated with 10 ng of FITC-conjugated peptides at 37° C. for one day, followed by refreshing the chondrogenic medium. Peptide internalization was evaluated through fluorescence microscopy on days 1, 3, and 7.
We further explored whether peptides derived from CXCL14 and CXCL12 have the capacity to induce chondrogenesis in MSCs from different sources. To assess their potential, ADSCs were utilized in the study to evaluate the chondrogenic capacity of CXCL14-P and CXCL12-P on day 7 (FIG. 10A). […] FIG. 11 illustrates the cell-penetrating properties of CXCL14-P and CXCL12-P peptides in ADSCs, analyzed at different time points. ADSCs were incubated with FITC-conjugated peptides for one day, after which the chondrogenic medium was refreshed. […] Collectively, these observations indicate that CXCL14-P and CXCL12-P have the ability to stimulate chondrogenesis and further amplify the effects of TGF-β during the chondrogenic process.

## ITTKSVSRYRGQEH [CXCL14-P]
UC-MSCs [1]
  chondrogenic gene expression (COMP, SOX9, COL2A1, ACAN, ITGB1): significantly upregulated
UC-MSCs [2]
  GAG content (Alcian blue): increased
ADSC spheroids
  Collagen Type II, SOX9, and COMP expression: increase
clinical-grade ADSCs; in the absence of TGF-β
  GAG content (Alcian blue): evident
clinical-grade ADSCs; in the presence of TGF-beta
  GAG content (Alcian blue): significantly increased
clinical-grade ADSCs; peptides compared to CXCL14/CXCL12 proteins, listed as CXCL14 peptide
  GAG content (Alcian blue): significantly higher; also recorded: greater ability
ADSCs; 10 ng FAM-labeled, 24 hours then peptide-free medium, monitored to day 7
  cellular uptake / detectability of peptide: detectable on day 1 but became undetectable by day 7
ADSCs; 10 ng FITC-conjugated peptide, 37° C. for one day, observed days 1, 3, 7
  peptide internalization (cell penetration): remain detectable up to day 7
